From PubChem BioAssay (NCI) come the findings set out here.

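In this assay, cells in 96-well plates receive the compound at five concentrations for 48 hours. Endpoints are linearly interpolated between the surrounding concentrations. GI50 is the concentration that inhibits growth by half. TGI: concentration producing complete growth inhibition.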 Bounds are passed on as bounds.

Holding throughout (assay): inhibition of tumour cell growth, NCI panel, 48 h
Experiment [1] relates to NCI-H522 lung.
In experiment [2] the test system is HL-60(TB) leukemia.
Experiment [3] relates to SNB-75 CNS.
Experiment [4] deals with CCRF-CEM leukemia.
Experiment [5] relates to BT-549 breast.
The test system of experiment [6] is CAKI-1 renal.
The test system of experiment [7] is HOP-92 NSCLC.
The test system of experiment [8] is NCI-H23 lung.
The subject of experiment [9] is K-562 leukemia.
Experiment [10] concerns NCI/ADR-RES ovarian.

In the case of `C[C@@H]1COCCN1c1nc(-c2cnc(N)cc2C(F)F)nc(N2[C@H](C)COC[C@@H]2C)n1`, the GI50 was 0.267 µM in experiment [1]; 0.863 µM in experiment [2]; 0.0682 µM in experiment [3]; 0.431 µM in experiment [4]; 0.144 µM in [5]; 0.19 µM in experiment [6]. The GI50 in experiment [7] is 0.09 µM; in experiment [8], 0.267 µM; in experiment [9], 0.379 µM; in experiment [10], 0.4 µM. Moreover, the TGI in experiment [1] amounted to 12.8 µM; in experiment [2], 19.5 µM; in [3] it was 0.571 µM; in experiment [4], 21.2 µM; in experiment [5] it was 1.75 µM; in experiment [6] it was 11.4 µM. Besides, the TGI turned out to be 1.14 µM in experiment [7], 15.7 µM in [8], 17.4 µM in [9] and 15.1 µM in experiment [10].

Regarding `CCON=C1C(C)(C)C(C)(C)C(C)(C)C1(C)C`, the TGI in [1], in [2], in experiment [3], in experiment [4], in [5] and in experiment [6] was over 100 µM throughout. The TGI in experiment [7], in [8], in experiment [9] and in [10] was over 100 µM each time.

Turning to `CN(C)C(=S)NN=C(c1ccccn1)c1ccccn1`, the GI50 in experiment [1] is 0.124 µM; in experiment [2], under 0.0479 µM; in experiment [3], 14.3 µM; in [5], 0.074 µM; in experiment [6], under 0.0127 µM; in experiment [8], under 0.01 µM. In experiment [10], the GI50 is under 0.0208 µM. Further, the TGI in experiment [1] was 19.1 µM; in experiment [3], over 81.6 µM; in [4] it was over 65.2 µM; in experiment [5], 15.4 µM; in [6], 6.59 µM; in experiment [7] it was over 86.6 µM. Also, the TGI in [8] was 16.3 µM; in experiment [9] it was over 100 µM; in experiment [10], 4.98 µM.

With `CN(C)c1ccc(C(=O)c2ccc(N(C)C)c(N)c2)cc1N`, the GI50 in experiment [1] was 0.346 µM; in experiment [2], 1.29 µM; in experiment [3] it was 1.05 µM; in [4], 1.93 µM; in experiment [5], 8.02 µM; in experiment [6], 3.02 µM. Besides, the GI50 in experiment [7] is 1.46 µM; in experiment [8], 9.75 µM; in experiment [9] it was 0.867 µM; in [10], 1.13 µM. The TGI in experiment [1] was 4.61 µM; in [2], 9.08 µM; in [3] it was over 23.6 µM; in [4], over 100 µM; in experiment [5], over 88.2 µM; in experiment [6], over 43.3 µM. Moreover, the TGI in experiment [7] was over 70.4 µM; in [8], over 80.8 µM; in experiment [9], over 86.5 µM; in [10], 12.3 µM.

Consider `O=C1c2ccccc2-c2nccc3cc(Cl)nc1c23`, for which the GI50 in experiment [1] is 0.458 µM; in [2], 1.97 µM; in experiment [3], 1.93 µM; in experiment [4], 1.06 µM; in [5] it was 7.11 µM; in [6], over 100 µM. Further, the GI50 in experiment [7] is 1.56 µM; in experiment [8] it was 1.12 µM; in experiment [9], 0.665 µM; in experiment [10] it was 5.16 µM. Moreover, the TGI in experiment [1] is 1.61 µM; in [2], over 100 µM; in experiment [3], 9.56 µM; in experiment [5] it was over 100 µM; in [6] it was over 100 µM; in [7], 5.64 µM. For the same compound, the TGI was 2.4 µM in experiment [8], 5.24 µM in experiment [9] and over 72.9 µM in [10].

For `O=C1c2ccccc2-c2c1c1ccc([N+](=O)[O-])cc1c(=O)n2CCNCCCNCCn1c2c(c3ccc([N+](=O)[O-])cc3c1=O)C(=O)c1ccccc1-2`, the GI50 in experiment [1] was 1.14 µM; in experiment [2], 1.5 µM; in [3] it was 0.445 µM; in experiment [4] it was 0.00645 µM; in [5], 2.57 µM; in [6], 0.822 µM. For the same compound, the GI50 in experiment [7] is 0.803 µM; in [8] it was 0.0682 µM; in experiment [9] it was 0.0492 µM; in experiment [10] it was 0.923 µM. For the same compound, the TGI amounted to 19.5 µM in [1]; 50 µM in experiment [2]; 2.41 µM in experiment [3]; 3.97 µM in experiment [4]; 50 µM in experiment [5]; 21.7 µM in experiment [6]. The TGI is 4.16 µM in [7], 6.97 µM in experiment [8], 28.2 µM in experiment [9] and 25.9 µM in [10].

For the compound `COc1cc2c(cc1OCCCOC1=C=C=C(c3ccc4c(c3)c3cc(-c5ccc(OCCCOc6cc7c(cc6OC)C(=O)N6CCC[C@H]6C=N7)cc5)ccc3n4S(=O)(=O)c3ccc(C)cc3)C=C1)N=C[C@@H]1CCCN1C2=O`, the GI50 in experiment [1] is 3.53 µM; in [2] it was 0.826 µM; in [3], 1.03 µM; in experiment [4], 0.19 µM; in [5] it was 1.16 µM; in experiment [6], 1.29 µM. The GI50 is 0.79 µM in [7], 2.57 µM in [8], 1.06 µM in [9] and over 26.1 µM in experiment [10]. The TGI in [1] is 39.6 µM; in [2], over 11.4 µM; in experiment [3] it was 5.33 µM; in experiment [4], over 50 µM; in experiment [5], 4.59 µM; in experiment [6], 6.21 µM. The TGI in [7] was 3.37 µM; in experiment [8], 24.2 µM; in experiment [9], over 18.6 µM; in experiment [10], over 50 µM.
